# Measured values as given in PubChem BioAssay AID2811 (Southern Research Specialized Biocontainment Screening …, 2010).
# Activity calls are given as the source filed them. No rule for the calls is given here.
# System: S. Typhi WT vs phoP-, polymyxin IC50 shift, OD600 24 h
# Test: polymyxin IC50 shift in S. Typhi, Salmonella typhi, set 2 (AID 2811)
# Details: stronger effect = lower value; for polymyxin IC50 shift difference (WT - phoP-) / polymyxin IC50 shift: at 150 µM
# [1] = measured here: phoP- strain shift
# [2] = measured here: wild-type strain shift
Compound,polymyxin IC50 (WT polymyxin IC50 at 150 uM) [µM],polymyxin IC50 shift difference (WT - phoP-),polymyxin IC50 shift [1],polymyxin IC50 shift [2],polymyxin IC50 (phoP- polymyxin IC50 at 150 uM) [µM]
O=C(Nc1ccc(Br)cc1)N1CCCN(Cc2ccccc2F)C1,7.08,-5.49 (inactive),1.55,-3.93,2.62
O=C1C2=C(Nc3ccccc3SC2c2ccsc2)c2ccccc21 (centres undefined),21.5,-25.9 (inactive),6.12,-19.7,–
O=C1C2=C(Nc3ccccc3SC2c2ccc(I)cc2)c2ccccc21 (centres undefined),25.8,-8.99 (inactive),1.81,-7.18,0.04
CCn1cc(C(=O)O)c(=O)c2cc(F)c(N3CCN(C(=S)Nc4ccccc4C(F)(F)F)CC3)cc21,2.53,-9.73 (inactive),9.16,-0.568,2.76
COc1cccc(C2Sc3ccccc3NC3=C2C(=O)c2ccccc23)c1 (centres undefined),2.58,-3.66 (inactive),4.99,1.33,11.2
COc1ccc(CNC(=S)Nc2ccncc2)cc1,5.14,-2.86 (inactive),-0.186,-3.04,4.55
